According to ChEMBL document CHEMBL6127102 (Bioorg Med Chem, 2024):
Calls of active or inactive are those of the source. No cut-off for these calls is given here.

What was measured:
MDA-MB-231 [1] = test: Antitumor activity against human MDA-MB-231 cells harboring wild-type BRCA incubated for 72 hrs by MTT assay; type: functional, cell-based; settings: MDA-MB-231, 72 h
MDA-MB-468 = test: Antitumor activity against human MDA-MB-468 cells harboring wild-type BRCA incubated for 72 hrs by MTT assay; type: functional, cell-based; settings: MDA-MB-468, 72 h
HCC1937 = test: Antitumor activity against BRCA 1-deficient human HCC1937 cells incubated for 72 hrs by MTT assay; type: functional, cell-based; settings: HCC1937, 72 h
MDA-MB-436 = test: Antitumor activity against BRCA 1-deficient human MDA-MB-436 cells incubated for 72 hrs by MTT assay; type: functional, cell-based; settings: MDA-MB-436, 72 h
[2] = Cytotoxicity against human MCF-10A cells incubated for 72 hrs by MTT assay; type: toxicity, cell-based
MDA-MB-231 [3] = test: Induction of apoptosis in human MDA-MB-231 cells as increase in red fluorescence at 5 uM incubated for 24 hrs by Calcein AM/PI staining based confocal microscopy; type: functional, cell-based
MDA-MB-231 [4] = test: Effect on RAF expression in human MDA-MB-231 cells at 5 uM incubated for 24 hrs by Western blot analysis; type: functional, cell-based
MDA-MB-231 [5] = test: Effect on CRAF expression in human MDA-MB-231 cells at 5 uM incubated for 24 hrs by Western blot analysis; type: functional, cell-based
MDA-MB-231 [6] = test: Effect on MEK phosphorylation in human MDA-MB-231 cells at 5 uM incubated for 24 hrs by Western blot analysis; type: functional, cell-based
MDA-MB-231 [7] = test: Effect on ERK1/2 phosphorylation in human MDA-MB-231 cells at 5 uM incubated for 24 hrs by Western blot analysis; type: functional, cell-based
MDA-MB-231 [8] = test: Effect on total MEK in human MDA-MB-231 cells at 5 uM incubated for 24 hrs by Western blot analysis; type: functional, cell-based
MDA-MB-231 [9] = test: Effect on total ERK1/2 in human MDA-MB-231 cells at 5 uM incubated for 24 hrs by Western blot analysis; type: functional, cell-based
MDA-MB-231 [10] = test: Induction of DNA damage in human MDA-MB-231 cells assessed as increase in olive tail moments at 5 uM incubated for 24 hrs by Comet assay; type: functional, cell-based
MDA-MB-231 [11] = test: Induction of ROS generation in human MDA-MB-231 cells at 5 uM incubated for 24 hrs by DCFH-DA staining based flow cytometric analysis; type: functional, cell-based
MDA-MB-231 [12] = test: Induction of DNA damage in human MDA-MB-231 cells assessed as increase in gamma-H2AX level at 5 uM incubated for 24 hrs by immunofluorescence based analysis; type: functional, cell-based
MDA-MB-231 [13] = test: Induction of apoptosis in human MDA-MB-231 cells at 5 uM incubated for 24 hrs by Annexin V-FITC/PI staining based flow cytometry relative to control; type: functional
[14] = Induction of depolarization of mitochondrial membrane potential in human MDA-MB-231 cells at 5 uM incubated for 24 hrs by JC-1 staining based flow cytometry relative to control; type: functional
MDA-MB-231 [15] = test: Anti-migration activity in human MDA-MB-231 cells at 1 uM incubated for 24 hrs by wound healing assay; type: functional, cell-based
MDA-MB-231 [16] = test: […] activity in human MDA-MB-231 cells at 1 uM incubated for 24 hrs by wound healing assay; type: functional, cell-based
MDA-MB-231 [17] = test: Induction of apoptosis in human MDA-MB-231 cells assessed as increase in Bax level at 5 uM incubated for 24 hrs by Western blot analysis; type: functional, cell-based
MDA-MB-231 [18] = test: Induction of apoptosis in human MDA-MB-231 cells assessed as decrease in Bcl-2 level at 5 uM incubated for 24 hrs by Western blot analysis; type: functional, cell-based
MDA-MB-231 [19] = test: Induction of apoptosis in human MDA-MB-231 cells assessed as increase in cleaved PARP level at 5 uM incubated for 24 hrs by Western blot analysis; type: functional, cell-based
MDA-MB-231 [20] = test: Induction of apoptosis in human MDA-MB-231 cells assessed as increase in cleaved caspase-3 level at 5 uM incubated for 24 hrs by Western blot analysis; type: functional, cell-based
MDA-MB-231 [21] = test: Induction of apoptosis in human MDA-MB-231 cells assessed as increase in cleaved caspase-9 level at 5 uM incubated for 24 hrs by Western blot analysis; type: functional, cell-based
MDA-MB-231 [22] = test: Antitumor activity against human MDA-MB-231 cells xenografted in BALB/c nude mouse at 23 mg/kg, ip administered on every 2 days for 28 days relative to control; type: functional; settings: MDA-MB-231, 672 h, time 28 day, read-out: TGI
MDA-MB-231 [23] = test: Antitumor activity against human MDA-MB-231 cells xenografted in BALB/c nude mouse at 23 mg/kg, ip administered on every 2 days for 28 days in presence of Olaparib relative to control; type: functional; settings: MDA-MB-231, 672 h, time 28 day, read-out: TGI
[24] = Toxicity in BALB/c nude mouse xenografted with human MDA-MB-231 cells assessed as body weight change at 23 mg/kg, ip administered on every 2 days for 28 days; type: organism-based; settings: in vivo, 672 h, time 28 day
[25] = Toxicity in BALB/c nude mouse xenografted with human MDA-MB-231 cells assessed as body weight change at 23 mg/kg, ip administered on every 2 days for 28 days in presence of Olaparib; type: organism-based; settings: in vivo, 672 h, time 28 day
[26] = Toxicity in BALB/c nude mouse xenografted with human MDA-MB-231 cells assessed as drug tolerance at 23 mg/kg, ip administered on every 2 days for 28 days; type: organism-based; settings: in vivo, 672 h, time 28 day
[27] = Toxicity in BALB/c nude mouse xenografted with human MDA-MB-231 cells assessed as drug tolerance at 23 mg/kg, ip administered on every 2 days for 28 days in presence of Olaparib; type: organism-based; settings: in vivo, 672 h, time 28 day
MDA-MB-231 [28] = test: Antitumor activity against human MDA-MB-231 cells xenografted in BALB/c nude mouse assessed as increase in apoptotic cells at 23 mg/kg, ip administered on every 2 days for 28 days by H and E staining based analysis; type: functional, organism-based; settings: time 28.0 day
MDA-MB-231 [29] = test: Antitumor activity against human MDA-MB-231 cells xenografted in BALB/c nude mouse assessed as increase in necrotic cells at 23 mg/kg, ip administered on every 2 days for 28 days by H and E staining based analysis; type: functional, organism-based; settings: time 28.0 day
MDA-MB-231 [30] = test: Antitumor activity against human MDA-MB-231 cells xenografted in BALB/c nude mouse assessed as decrease in Ki-67 expression at 23 mg/kg, ip administered on every 2 days for 28 days by H and E staining based analysis; type: functional, organism-based; settings: time 28.0 day
MDA-MB-231 [31] = test: Antitumor activity against human MDA-MB-231 cells xenografted in BALB/c nude mouse assessed as increase in apoptotic cells at 23 mg/kg, ip administered on every 2 days for 28 days in presence of Olaparib by H and E staining based analysis; type: functional, organism-based; settings: time 28.0 day
MDA-MB-231 [32] = test: Antitumor activity against human MDA-MB-231 cells xenografted in BALB/c nude mouse assessed as increase in necrotic cells at 23 mg/kg, ip administered on every 2 days for 28 days in presence of Olaparib by H and E staining based analysis; type: functional, organism-based; settings: time 28.0 day
MDA-MB-231 [33] = test: Antitumor activity against human MDA-MB-231 cells xenografted in BALB/c nude mouse assessed as decrease in Ki-67 expression at 23 mg/kg, ip administered on every 2 days for 28 days in presence of Olaparib by H and E staining based analysis; type: functional, organism-based; settings: time 28.0 day

Question: For COc1cc(OC)c(/C=C/S(=O)(=O)Cc2ccc(OC)c(NCCCC(=O)O)c2)c(OC)c1, which IC50 (MDA-MB-231 [1]) is on record?
Answer: 1.87 µM

Question: What about the IC50 (MDA-MB-468) of the same compound?
Answer: 2.33 µM

Question: And the IC50 (HCC1937)?
Answer: 1.08 µM

Question: And the IC50 (MDA-MB-436)?
Answer: 2.11 µM

Question: What about the IC50 at 72 h [2] of the same compound?
Answer: 30.6 µM

Question: And the Activity (MDA-MB-231 [3])?
Answer: Active

Question: And the Activity (MDA-MB-231 [4])?
Answer: inactive

Question: What about the Activity (MDA-MB-231 [5]) of the same compound?
Answer: Active

Question: What about the Activity (MDA-MB-231 [6]) of the same compound?
Answer: Active

Question: And the Activity (MDA-MB-231 [7])?
Answer: Active

Question: What about the Activity (MDA-MB-231 [8]) of the same compound?
Answer: inactive

Question: What about the Activity (MDA-MB-231 [9]) of the same compound?
Answer: inactive

Question: And the Activity (MDA-MB-231 [10])?
Answer: Active

Question: What about the Activity (MDA-MB-231 [11]) of the same compound?
Answer: Active

Question: And the Activity (MDA-MB-231 [12])?
Answer: Active

Question: What about the Activity (MDA-MB-231 [13]) of the same compound?
Answer: 31.1%

Question: And the Activity [14]?
Answer: 31.56%

Question: What about the Activity (MDA-MB-231 [15]) of the same compound?
Answer: Active

Question: And the Activity (MDA-MB-231 [16])?
Answer: Active

Question: And the Activity (MDA-MB-231 [17])?
Answer: Active

Question: What about the Activity (MDA-MB-231 [18]) of the same compound?
Answer: Active

Question: And the Activity (MDA-MB-231 [19])?
Answer: Active

Question: And the Activity (MDA-MB-231 [20])?
Answer: Active

Question: And the Activity (MDA-MB-231 [21])?
Answer: Active

Question: What about the inhibition in vivo at 23 mg/kg (MDA-MB-231 [22]) of the same compound?
Answer: 51.8%

Question: What about the inhibition in vivo at 23 mg/kg (MDA-MB-231 [23]) of the same compound?
Answer: 56.7%

Question: And the Activity [24]?
Answer: Non-Toxic

Question: What about the Activity [25] of the same compound?
Answer: Non-Toxic

Question: What about the Activity [26] of the same compound?
Answer: Non-Toxic

Question: What about the Activity [27] of the same compound?
Answer: Non-Toxic

Question: What about the Activity (MDA-MB-231 [28]) of the same compound?
Answer: Active

Question: What about the Activity (MDA-MB-231 [29]) of the same compound?
Answer: Active

Question: What about the Activity (MDA-MB-231 [30]) of the same compound?
Answer: Active

Question: And the Activity (MDA-MB-231 [31])?
Answer: Active

Question: And the Activity (MDA-MB-231 [32])?
Answer: Active

Question: What about the Activity (MDA-MB-231 [33]) of the same compound?
Answer: Active
